In assay [1] the target is T1, Epidermal growth factor receptor (Homo sapiens, UniProt P00533). Put plainly: Inhibition of wild type EGFR (unknown origin) using FAM-labelled peptide as substrate at 1 uM incubated for 10 mins in presence of ATP measured by mobility shift assay.
The species entered for assay [2] is Homo sapiens. The assay is described as follows: Inhibition of EGFR T790M/L858R double mutant (unknown origin) using FAM-labelled peptide as substrate at 1 uM incubated for 10 mins in presence of ATP measured by mobility shift assay.
The species entered for assay [3] is Homo sapiens. The assay is described as follows: Inhibition of EGFR T790M mutant (unknown origin) using FAM-labelled peptide as substrate at 1 uM incubated for 10 mins in presence of ATP measured by mobility shift assay.
Assay [4] concerns the target Vascular endothelial growth factor receptor 2 (Homo sapiens) (UniProt P35968). The assay is described as follows: Inhibition of KDR (unknown origin) using FAM-labelled peptide as substrate at 1 uM incubated for 10 mins in presence of ATP measured by mobility shift assay.
In assay [5] the target is Hepatocyte growth factor receptor (Homo sapiens) (UniProt P08581). The assay is described as follows: Inhibition of c-MET (unknown origin) using FAM-labelled peptide as substrate at 1 uM incubated for 10 mins in presence of ATP measured by mobility shift assay.
Chain of Hepatocyte growth factor receptor (Homo sapiens) (P08581 whole entry): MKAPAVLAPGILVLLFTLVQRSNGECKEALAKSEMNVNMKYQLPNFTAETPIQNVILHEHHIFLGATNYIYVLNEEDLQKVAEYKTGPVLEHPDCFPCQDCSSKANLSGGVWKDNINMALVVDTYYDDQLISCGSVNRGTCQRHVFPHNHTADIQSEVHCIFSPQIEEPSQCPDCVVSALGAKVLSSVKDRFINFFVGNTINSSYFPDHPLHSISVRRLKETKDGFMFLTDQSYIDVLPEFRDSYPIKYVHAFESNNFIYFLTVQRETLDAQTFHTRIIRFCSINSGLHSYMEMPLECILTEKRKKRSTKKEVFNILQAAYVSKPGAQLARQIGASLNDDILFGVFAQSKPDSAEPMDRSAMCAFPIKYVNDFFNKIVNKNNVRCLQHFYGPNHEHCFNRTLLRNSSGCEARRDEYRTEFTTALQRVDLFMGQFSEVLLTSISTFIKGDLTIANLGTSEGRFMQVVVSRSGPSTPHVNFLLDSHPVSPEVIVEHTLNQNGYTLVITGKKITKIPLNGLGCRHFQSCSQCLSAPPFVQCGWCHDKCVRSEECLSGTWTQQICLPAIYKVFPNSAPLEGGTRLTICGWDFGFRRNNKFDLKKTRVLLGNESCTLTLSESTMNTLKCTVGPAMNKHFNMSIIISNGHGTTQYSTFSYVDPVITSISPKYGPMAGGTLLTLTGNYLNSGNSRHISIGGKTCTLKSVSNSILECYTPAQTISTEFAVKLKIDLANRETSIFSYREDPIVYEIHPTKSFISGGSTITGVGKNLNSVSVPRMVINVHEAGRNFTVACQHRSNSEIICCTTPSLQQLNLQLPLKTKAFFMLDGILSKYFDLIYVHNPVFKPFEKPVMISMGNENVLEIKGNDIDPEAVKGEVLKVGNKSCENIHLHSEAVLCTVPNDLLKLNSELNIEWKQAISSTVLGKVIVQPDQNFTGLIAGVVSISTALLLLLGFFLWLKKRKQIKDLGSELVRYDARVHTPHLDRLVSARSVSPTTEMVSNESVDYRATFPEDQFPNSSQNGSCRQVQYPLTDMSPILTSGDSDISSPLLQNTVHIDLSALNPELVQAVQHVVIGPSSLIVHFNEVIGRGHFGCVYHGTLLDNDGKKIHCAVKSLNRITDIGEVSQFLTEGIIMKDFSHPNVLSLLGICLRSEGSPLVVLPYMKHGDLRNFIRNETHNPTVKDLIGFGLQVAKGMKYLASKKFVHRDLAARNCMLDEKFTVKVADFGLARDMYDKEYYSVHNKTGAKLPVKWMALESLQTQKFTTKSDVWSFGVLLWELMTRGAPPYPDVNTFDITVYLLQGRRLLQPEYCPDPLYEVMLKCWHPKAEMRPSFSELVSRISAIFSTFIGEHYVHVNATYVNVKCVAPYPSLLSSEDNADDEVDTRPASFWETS
A further assay has as its system MCF7. Put plainly: Antiproliferative activity against human MCF7 cells assessed as inhibition of cell proliferation measured after 72 hrs by MTT assay. Type of assay: functional, cell-based. The following applies: MCF7, 72 h.
Another assay relates to HeLa. The assay is described as follows: Antiproliferative activity against human HeLa cells assessed as inhibition of cell proliferation measured after 72 hrs by MTT assay. The format is functional, cell-based. Background: Tetrazolium dyes change colour on reduction, which living cells bring about.
The subject of assay [6] is A-431. The assay is described as follows: Antiproliferative activity against human A-431 cells assessed as inhibition of cell proliferation measured after 72 hrs by MTT assay. Conditions: A-431, 72 h. Type of assay: functional, cell-based.
The next assay deals with A549. The assay is described as follows: Antiproliferative activity against human A549 cells assessed as inhibition of cell proliferation measured after 72 hrs by MTT assay. Type of assay: functional, cell-based. The following applies: A549, 72 h.
The target in assay [7] is Serine/threonine-protein kinase mTOR (Homo sapiens) (UniProt P42345). The assay is described as follows: Inhibition of mTOR (unknown origin) using FAM-labelled peptide as substrate at 1 uM incubated for 10 mins in presence of ATP measured by mobility shift assay.
Assay [8] is filed under the species Homo sapiens. Put plainly: Inhibition of PI3K (unknown origin) using FAM-labelled peptide as substrate at 1 uM incubated for 10 mins in presence of ATP measured by mobility shift assay.
A further assay concerns L02. The assay is described as follows: Cytotoxicity against human L02 cells assessed as inhibition of cell proliferation measured after 72 hrs by MTT assay. The following applies: L02, 72 h. The format is cell-based.
For assay [9], the system named is NCI-H1975. The assay is described as follows: Antiproliferative activity against human NCI-H1975 cells harboring EGFR T790M/L858R double mutant assessed as inhibition of cell viability at 10 uM measured after 72 hrs by MTT assay. The format is functional.
Assay [10] relates to NCI-H1975. Put plainly: Antiproliferative activity against human NCI-H1975 cells harboring EGFR T790M/L858R double mutant assessed as inhibition of cell viability at 1 uM measured after 72 hrs by MTT assay. The format is functional.
For assay [11], the system named is NCI-H1975. The assay is described as follows: Antiproliferative activity against human NCI-H1975 cells harboring EGFR T790M/L858R double mutant assessed as inhibition of cell viability measured after 72 hrs by MTT assay. The following applies: NCI-H1975, 72 h. The format is functional, cell-based.
Assay [12] is described as follows: Inhibition of EGFR T790M mutant (unknown origin) using FAM-labelled peptide as substrate incubated for 10 mins in presence of ATP measured by mobility shift assay. The arrangement: species or system Homo sapiens.
Assay [13] is described as follows: Inhibition of EGFR T790M/L858R double mutant (unknown origin) using FAM-labelled peptide as substrate incubated for 10 mins in presence of ATP measured by mobility shift assay. The arrangement: species or system Homo sapiens.
The target in assay [14] is T1, Epidermal growth factor receptor. The assay is described as follows: Inhibition of wild type EGFR (unknown origin) using FAM-labelled peptide as substrate incubated for 10 mins in presence of ATP measured by mobility shift assay.
The species named for assay [15] is Homo sapiens. The assay is described as follows: Selectivity ratio of IC50 for wild type EGFR (unknown origin) to IC50 for EGFR T790M mutant (unknown origin) measured by mobility shift assay.
Assay [16] is filed under the species Homo sapiens. The assay is described as follows: Selectivity ratio of IC50 for wild type EGFR (unknown origin) to IC50 for EGFR T790M/L858R double mutant (unknown origin) measured by mobility shift assay.
Assay [17] deals with A-431. Put plainly: Induction of apoptosis in human A-431 cells assessed as viable cells at 5 uM measured after 48 hrs by Annexin V-FITC staining based flow cytometry (reference value: 95.67%). The format is functional. Conditions: read-out: Activity. A general note: In flow cytometry, cells or beads pass a laser one at a time.
Assay [18] has as its system A-431. Put plainly: Induction of apoptosis in human A-431 cells assessed as early apoptotic cells at 5 uM measured after 48 hrs by Annexin V-FITC staining based flow cytometry (reference value: 2.1%). Type of assay: functional.
Assay [19] deals with A-431. Put plainly: Induction of apoptosis in human A-431 cells assessed as late apoptotic cells at 5 uM measured after 48 hrs by Annexin V-FITC staining based flow cytometry (reference value: 2.02%). Type of assay: functional.
The subject of assay [20] is A-431. Put plainly: Induction of apoptosis in human A-431 cells assessed as necrotic cells at 5 uM measured after 48 hrs by Annexin V-FITC staining based flow cytometry (reference value: 0.21%). Type of assay: functional.
The test system of assay [21] is A-431. The assay is described as follows: Antiproliferative activity against human A-431 cells assessed as inhibition of cell proliferation at 0.33 uM measured after 6 hrs by Acridine orange staining based fluorescence microscopy. The format is functional.
Assay [22] concerns A-431. The assay is described as follows: Induction of apoptosis in human A-431 cells assessed as viable cells at 0.2 uM measured after 48 hrs by Annexin V-FITC staining based flow cytometry (reference value: 95.67%). The format is functional. The following applies: read-out: Activity.
In assay [23] the test system is A-431. The assay is described as follows: Induction of apoptosis in human A-431 cells assessed as early apoptotic cells at 0.2 uM measured after 48 hrs by Annexin V-FITC staining based flow cytometry (reference value: 2.1%). The format is functional.
Assay [24] has as its system A-431. Put plainly: Induction of apoptosis in human A-431 cells assessed as late apoptotic cells at 0.2 uM measured after 48 hrs by Annexin V-FITC staining based flow cytometry (reference value: 2.02%). Type of assay: functional.
For assay [25], the system named is A-431. The assay is described as follows: Induction of apoptosis in human A-431 cells assessed as necrotic cells at 0.2 uM measured after 48 hrs by Annexin V-FITC staining based flow cytometry (reference value: 0.21%). The format is functional.
In assay [26] the test system is A-431. Put plainly: Induction of apoptosis in human A-431 cells assessed as viable cells at 4 uM measured after 48 hrs by Annexin V-FITC staining based flow cytometry (reference value: 95.67%). Type of assay: functional. The following applies: read-out: Activity.
The subject of assay [27] is A-431. The assay is described as follows: Induction of apoptosis in human A-431 cells assessed as early apoptotic cells at 4 uM measured after 48 hrs by Annexin V-FITC staining based flow cytometry (reference value: 2.1%). Type of assay: functional.
Assay [28] has as its system A-431. The assay is described as follows: Induction of apoptosis in human A-431 cells assessed as late apoptotic cells at 4 uM measured after 48 hrs by Annexin V-FITC staining based flow cytometry (reference value: 2.02%). Type of assay: functional.
Assay [29] concerns A-431. Put plainly: Induction of apoptosis in human A-431 cells assessed as necrotic cells at 4 uM measured after 48 hrs by Annexin V-FITC staining based flow cytometry (reference value: 0.21%). Type of assay: functional.
Assay [30] relates to A-431. The assay is described as follows: Induction of apoptosis in human A-431 cells assessed as viable cells at 8 uM measured after 48 hrs by Annexin V-FITC staining based flow cytometry (reference value: 95.67%). The format is functional. The following applies: read-out: Activity.
Assay [31] has as its system A-431. Put plainly: Induction of apoptosis in human A-431 cells assessed as early apoptotic cells at 8 uM measured after 48 hrs by Annexin V-FITC staining based flow cytometry (reference value: 2.1%). The format is functional.
For assay [32], the system named is A-431. Put plainly: Induction of apoptosis in human A-431 cells assessed as late apoptotic cells at 8 uM measured after 48 hrs by Annexin V-FITC staining based flow cytometry (reference value: 2.02%). The format is functional.
Assay [33] relates to A-431. The assay is described as follows: Induction of apoptosis in human A-431 cells assessed as necrotic cells at 8 uM measured after 48 hrs by Annexin V-FITC staining based flow cytometry (reference value: 0.21%). The format is functional.
Assay [34] deals with A-431. The assay is described as follows: Induction of cell morphological changes in human A-431 cells assessed as chromatin contraction with sharp cell edge at 0.33 uM measured after 6 hrs by Acridine orange staining based fluorescence microscopy. The format is functional.

Activity calls are given as the source filed them. The calls are words filed in the database; no cut-off is given here. Some results are limits rather than exact numbers.

One may read the inhibition as the drop in the measured response relative to a control, in per cent. What is called IC50 is the concentration at which inhibition is half-maximal.

T1 sequence (P00533 whole entry): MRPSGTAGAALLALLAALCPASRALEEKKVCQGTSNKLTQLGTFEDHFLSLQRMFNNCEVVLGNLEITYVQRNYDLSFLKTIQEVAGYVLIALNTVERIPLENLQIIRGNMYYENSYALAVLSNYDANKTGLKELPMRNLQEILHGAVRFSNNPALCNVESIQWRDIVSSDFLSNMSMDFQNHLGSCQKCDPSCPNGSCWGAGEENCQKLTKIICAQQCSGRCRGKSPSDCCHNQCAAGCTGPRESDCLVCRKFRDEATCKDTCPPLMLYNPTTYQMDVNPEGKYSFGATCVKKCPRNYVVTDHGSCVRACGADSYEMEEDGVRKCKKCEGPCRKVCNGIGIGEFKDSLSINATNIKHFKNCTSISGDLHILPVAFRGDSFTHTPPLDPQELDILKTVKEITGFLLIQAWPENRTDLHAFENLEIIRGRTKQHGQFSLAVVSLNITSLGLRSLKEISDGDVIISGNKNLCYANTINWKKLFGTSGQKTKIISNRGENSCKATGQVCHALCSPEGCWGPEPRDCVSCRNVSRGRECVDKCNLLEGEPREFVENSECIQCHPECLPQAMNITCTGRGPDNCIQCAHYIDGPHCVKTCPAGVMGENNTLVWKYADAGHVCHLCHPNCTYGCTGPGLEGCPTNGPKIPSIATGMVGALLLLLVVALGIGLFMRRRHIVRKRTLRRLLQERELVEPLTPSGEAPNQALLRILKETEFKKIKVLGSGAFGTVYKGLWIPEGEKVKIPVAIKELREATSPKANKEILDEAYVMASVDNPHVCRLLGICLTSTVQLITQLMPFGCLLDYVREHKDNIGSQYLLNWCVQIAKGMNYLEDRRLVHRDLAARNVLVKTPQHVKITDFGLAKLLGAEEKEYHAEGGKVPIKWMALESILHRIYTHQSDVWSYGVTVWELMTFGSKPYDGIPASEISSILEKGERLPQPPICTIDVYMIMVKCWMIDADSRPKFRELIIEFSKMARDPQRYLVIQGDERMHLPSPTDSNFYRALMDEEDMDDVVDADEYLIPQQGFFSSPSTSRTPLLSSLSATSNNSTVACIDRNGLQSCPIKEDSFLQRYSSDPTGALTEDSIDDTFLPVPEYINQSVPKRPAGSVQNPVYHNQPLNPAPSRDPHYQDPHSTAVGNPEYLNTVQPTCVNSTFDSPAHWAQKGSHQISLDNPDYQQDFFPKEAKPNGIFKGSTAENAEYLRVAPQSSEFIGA
Chain of Vascular endothelial growth factor receptor 2 (Homo sapiens) (P35968 whole entry): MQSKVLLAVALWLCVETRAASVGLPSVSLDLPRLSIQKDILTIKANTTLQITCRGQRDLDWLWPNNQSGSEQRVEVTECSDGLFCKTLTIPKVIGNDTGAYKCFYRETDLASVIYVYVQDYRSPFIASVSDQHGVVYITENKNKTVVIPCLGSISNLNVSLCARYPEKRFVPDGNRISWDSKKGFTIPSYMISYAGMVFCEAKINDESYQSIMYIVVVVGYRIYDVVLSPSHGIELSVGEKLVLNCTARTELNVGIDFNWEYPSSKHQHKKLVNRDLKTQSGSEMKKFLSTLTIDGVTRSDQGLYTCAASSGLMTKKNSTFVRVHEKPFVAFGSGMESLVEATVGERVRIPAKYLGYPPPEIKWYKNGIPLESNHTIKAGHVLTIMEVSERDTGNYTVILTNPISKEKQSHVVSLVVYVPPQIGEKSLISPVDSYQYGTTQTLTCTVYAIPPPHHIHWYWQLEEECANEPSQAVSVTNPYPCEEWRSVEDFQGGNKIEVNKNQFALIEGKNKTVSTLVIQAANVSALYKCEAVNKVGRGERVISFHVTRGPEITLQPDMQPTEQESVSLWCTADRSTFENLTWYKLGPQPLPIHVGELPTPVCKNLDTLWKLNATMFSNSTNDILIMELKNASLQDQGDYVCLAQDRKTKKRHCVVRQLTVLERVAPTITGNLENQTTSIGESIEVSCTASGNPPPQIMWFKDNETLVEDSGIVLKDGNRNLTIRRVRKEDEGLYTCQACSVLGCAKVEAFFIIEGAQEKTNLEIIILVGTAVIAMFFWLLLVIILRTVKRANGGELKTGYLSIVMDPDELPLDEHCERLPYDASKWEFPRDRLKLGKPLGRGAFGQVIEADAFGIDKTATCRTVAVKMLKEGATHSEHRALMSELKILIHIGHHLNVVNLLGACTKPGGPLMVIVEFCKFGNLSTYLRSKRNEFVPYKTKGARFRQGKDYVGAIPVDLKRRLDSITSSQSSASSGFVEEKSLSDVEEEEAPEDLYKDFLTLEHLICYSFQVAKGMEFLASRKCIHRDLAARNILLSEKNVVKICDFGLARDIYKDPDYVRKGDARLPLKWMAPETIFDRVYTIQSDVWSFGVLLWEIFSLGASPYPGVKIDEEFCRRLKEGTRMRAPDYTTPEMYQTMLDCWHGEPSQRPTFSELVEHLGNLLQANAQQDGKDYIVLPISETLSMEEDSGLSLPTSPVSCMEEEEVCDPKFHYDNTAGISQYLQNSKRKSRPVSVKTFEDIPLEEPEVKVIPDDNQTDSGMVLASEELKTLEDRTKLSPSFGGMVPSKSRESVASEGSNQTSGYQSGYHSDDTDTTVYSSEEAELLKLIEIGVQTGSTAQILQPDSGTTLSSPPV

As for `C=CC(=O)Nc1cccc(Oc2nc(Nc3cccc(OC)c3)nc3ccsc23)c1`, the inhibition in [1] was 24%; in the assay listed under Homo sapiens [2], 104%; in the assay listed under Homo sapiens [3], 94.8%; in [4] it was -0.2%; in assay [5], 0.5%; in assay [7] it was 9.7%. Further, the inhibition in the assay filed under Homo sapiens [8] amounted to 31.6%. The IC50 in the assay on MCF7 worked out at 19 µM; in the assay with HeLa, 16.4 µM; in the assay with A-431 [6], 4.79 µM; in the assay on A549, 4.34 µM; with L02, 30.3 µM; in the assay on NCI-H1975 [11] it was 0.418 µM. Besides, the values for the IC50 in assay [12], in assay [13] and in assay [14] were 0.0766 µM, 0.0153 µM and greater than 1 µM, respectively. For the same molecule, in the assay on NCI-H1975 [9], the inhibition at 10 µM was 86.8%. Further, the inhibition at 1 µM with NCI-H1975 [10] was determined as 50.6%. In addition, the Selectivity ratio was greater than 13 in the assay listed under Homo sapiens [15] and greater than 65 in the assay filed under Homo sapiens [16].
Consider `C=CC(=O)Nc1cccc(Oc2nc(Nc3ccc(N4CCN(C)CC4)cc3)nc3ccsc23)c1` [OLMUTINIB], for which, in the assay listed under Homo sapiens [3], the inhibition came to 98.1%. In addition, the IC50 stood at 6.9 µM with MCF7; 9.27 µM with HeLa; 5.29 µM with A-431 [6]; 4.29 µM in the assay on A549; 25.5 µM in the assay with L02; 0.52 µM in the assay on NCI-H1975 [11]. Moreover, the half-maximal inhibitory concentration (IC50) in assay [12] came out at 0.048 µM; in assay [13] it was 0.0127 µM. In addition, the inhibition at 10 µM in the assay with NCI-H1975 [9] is 74.6%. The inhibition at 1 µM in the assay on NCI-H1975 [10] came out at 6.08%. In addition, in the assay on A-431 [17], the viability at 5 µM was found to be 78.7%. For the same molecule, the Activity turned out to be 5.17% in the assay with A-431 [18], 14.78% in the assay on A-431 [19] and 1.37% in the assay with A-431 [20].
As for `C=CC(=O)Nc1cccc(Oc2nc(Nc3cccc(C#N)c3)nc3ccsc23)c1`, the inhibition in [1] is 23.5%; in the assay listed under Homo sapiens [2], 104%; in the assay listed under Homo sapiens [3] it was 95.9%; in [4] it was 1.1%; in assay [5] it was 6%; in assay [7] it was 9.3%. In the assay listed under Homo sapiens [8], the inhibition amounted to 31.5%. Besides, the half-inhibitory concentration (IC50) is 19 µM in the assay with MCF7; 6.39 µM in the assay with HeLa; 3.79 µM in the assay with A-431 [6]; 4.34 µM with A549; greater than 50 µM with L02; 0.699 µM with NCI-H1975 [11]. Besides, the IC50 is 0.065 µM in [12], 0.0136 µM in assay [13] and greater than 1 µM in assay [14]. Moreover, the inhibition at 10 µM in the assay on NCI-H1975 [9] was determined as 79.5%. For the same molecule, the inhibition at 1 µM in the assay with NCI-H1975 [10] is 44.3%. Besides, the Selectivity ratio in the assay filed under Homo sapiens [15] was greater than 15; in the assay listed under Homo sapiens [16], greater than 73. Further, the result in the assay on A-431 [21] and in the assay on A-431 [34] was Active. Besides, the viability at 0.2 µM in the assay with A-431 [22] was 83.4%. Also, the Activity is 3.29% in the assay on A-431 [23]; 12.66% in the assay with A-431 [24]; 0.63% in the assay with A-431 [25]; 4.87% in the assay with A-431 [27]; 16.41% in the assay on A-431 [28]; 1.33% with A-431 [29]. Besides, the Activity is on record as 3.54% in the assay on A-431 [31], 17.17% in the assay with A-431 [32] and 0.97% in the assay on A-431 [33]. For the same molecule, the viability at 4 µM with A-431 [26] turned out to be 77.4%. Besides, the viability at 8 µM with A-431 [30] was determined as 78.3%.

These data come from ChEMBL document CHEMBL4706512, “Design, synthesis and antitumor activity of novel thiophene-pyrimidine derivatives as EGFR inhibitors overcoming T790M and L858R/T790M mutations” (Eur J Med Chem, 2020).
